Source: PMC12354831 (Cell Death Discovery, 2025)

Legend:
GLUT3 mutants = assay: MST binding assay, GLUT3 mutants taken together vs WT; design: species or system human
Description: Data from three independent measurements were analyzed using MO. Affinity Analysis software (version 2.1.3, NanoTemper Technologies).

[1] = CC50 determination (CCK-8) in normal astrocyte cell line SVGp12; format: cell-based; conditions: human, SVGp12 normal astrocyte cells, SVGp12 normal astrocytes
Description: The human normal astrocyte cell line SVGp12 was seeded in a 96-well plate at a density of 5 × 10^3 cells per well and incubated overnight at 37 °C in a humidified atmosphere containing 5% CO2. […] After the treatment period, 10 μL of CCK-8 reagent was added to each well, followed by an additional incubation for 1 h under the same conditions. The absorbance at 450 nm was measured using a microplate reader. In this study, the experimental group treated with TMZ or CAPE was designated as group A, the control group treated with DMSO as group B, and the blank control group without cells as group C. The cell viability rate was calculated using the formula: (A-C)/(B-C) × 100%, where A, B, and C represent the absorbance values of group A, group B, and group C, respectively.

U251-MG cells = assay: Colony formation assay in U251-MG cells overexpressing GLUT3 Q159A, W386A or WT; format: cell-based, human; conditions: TMZ 200 μM or CAPE 400 μM every two days
Description: GBM cells were harvested using 0.25% trypsin when cell viability was confirmed to be optimal, and the cell concentration was determined using a hemocytometer. A total of 1 × 10³ cells were seeded into each well of a 6-well plate and incubated at 37 °C overnight. The following day, cell morphology was examined under an inverted microscope. The culture medium was replaced every 2 days, and cell growth was monitored regularly. When cell colonies exceeded 50 cells, they were recorded. The cells were then washed with pre-warmed PBS. Subsequently, the cells were fixed with 4% paraformaldehyde (1 mL per well) for 20 min at room temperature. After fixation, the cells were washed three times with PBS. A total of 1 mL of 0.1% crystal violet staining solution was added to each well for 20 min. The wells were then washed three times with distilled water, covered with a plate lid, and left to dry overnight. The number of colonies in each well was quantified using ImageJ software.
The medium was replaced every 2 days. When colonies visible to the naked eye had formed, the cells were fixed with 4% paraformaldehyde and stained with 0.1% crystal violet as described above. The colonies were then quantified using ImageJ software for statistical analysis.

[2] = tested on: U251-MG cell-derived xenograft; assay: TMZ and CAPE levels in nude mouse xenograft tumors by LC-MS/MS; format: in vivo, nude mice (BALB/c-nu); conditions: nude mice, TMZ 40 mg/kg or CAPE 20 mg/kg every 3 days; for drug level in GLUT3-overexpressing tumors relative to controls: fasting groups (24 h fast before each dose); for drug concentration in GLUT3 overexpressing tumors relative to controls: regular diet
Description: TMZ and CAPE levels in tumors from nude mice were measured using LC-MS/MS. Tumor tissues were excised from the mice and homogenized. The homogenized samples were then centrifuged at maximum speed (~14,000 × g) at 4 °C for 10 min. The supernatant was collected and transferred to a new centrifuge tube.
For LC-MS/MS analysis, the supernatants were diluted to an appropriate concentration. A total of 100 µL of each sample was mixed with 100 µL of acetonitrile (or standard reagent) and 300 µL of internal standard solution (^2H3-TMZ 100 ng/mL and ^2H11-CAPE 20 ng/mL dissolved in acetonitrile). […] To ensure the stability and repeatability of the instrument analysis, QC samples were prepared and analyzed alongside the experimental samples. QC samples were inserted regularly and analyzed every 6–12 samples. Each experiment was repeated 6 times.
LC-MS/MS analyses were performed using an HPLC system (Shimadzu, LC-20A) coupled to a SCIEX Triple Quad™ 7500 mass spectrometer. The samples were separated on a Syncronis HILIC column (2.1 × 100 mm, 1.7 µm; Thermo Scientific). The mobile phases consisted of: Mobile phase A (0.1% formic acid and 2.5 mM ammonium acetate in water) and Mobile phase B (0.1% formic acid and 2.5 mM ammonium acetate in acetonitrile). Gradient elution was employed, with the flow rates and gradient conditions detailed in Table S4.
The mass spectrometry conditions were as follows: Ion source: electrospray ionization (ESI); Detection mode: positive ion mode; Scanning method: multiple reaction monitoring (MRM); Spray voltage (IS): 5500 V; Ion source temperature (TEM): 555 °C; Gas curtain pressure (CUR): 25 psi; Collision activation dissociation (CAD): MEDIUM; Nebulizer gas pressure (GS1): 55 psi; Auxiliary gas pressure (GS2): 55 psi.
All animal studies were approved and supervised by the Ethics Committee for Animal Use and Care at Peking University. Nude mice (BALB/c-nu) were purchased and maintained as previously described. For the establishment of xenograft tumor models, 1 × 10^6 U251-MG cells (either negative vector control or overexpressing GLUT3) were injected into the bilateral axillary fossae of 4-week-old nude mice. After 7 days, when palpable tumors had formed, the mice were randomly divided into six experimental groups (n = 7 per group), and treatment was initiated immediately.

[3] = GLUT3 Q159A vs GLUT3 WT overexpression
[4] = GLUT3 W386A vs GLUT3 WT overexpression

Row | Compound | Kd increase vs WT (GLUT3 mutants; seven mutants) [fold] | CC50 at 24 h [1] [µM] | fold increase in colony numbers (U251-MG cells; [3]) [fold] | fold increase in colony numbers (U251-MG cells; [4]) [fold] | drug level in GLUT3-overexpressing tumors relative to controls [2] [fold] | drug concentration in GLUT3 overexpressing tumors relative to controls [2] | Kd increase vs WT (GLUT3 mutants; mutants T28A, S71A, Q281A, N286A, W386A, and G417A) [fold]
1 | CCCCCOC(=O)Nc1nc(=O)n([C@@H]2O[C@H](C)[C@@H](O)[C@H]2O)cc1F [CAPE, capecitabine] | > 1000 | 163 ± 31.8 | 1.7 | 4.4 | 3.54 | 1.52 fold | –
2 | Cn1nnc2c(C(N)=O)ncn2c1=O [TMZ] | – | 104 ± 21.1 | 0.97 | 7.3 | 1.34 | ~ 1.95 fold | > 1000
